Results reported in PubChem BioAssay (NCI).
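Interpolation was linear, between the two tested concentrations surrounding the appropriate level; five concentrations were tested over 48 hours in 96-well plates. GI50 = concentration required for 50% inhibition of growth. TGI marks complete inhibition of growth.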

Columns and labels:
Experiment in all cases: NCI-60 cell line screen, 48 h
[1] = system: SF-295 CNS
[2] = system: SN12C renal
[3] = system: KM12 colon
[4] = system: A549 NSCLC
[5] = system: RXF 393 renal
[6] = system: ACHN renal
[7] = system: HS 578T breast
[8] = system: BT-549 breast
[9] = system: DLD-1 colon
[10] = system: DMS 273 small cell lung

Structure (SMILES) | GI50 [1] | TGI [1] | GI50 [2] | TGI [2] | GI50 [3] | TGI [3] | GI50 [4] | TGI [4] | GI50 [5] | TGI [5] | GI50 [6] | TGI [6] | GI50 [7] | TGI [7] | GI50 [8] | TGI [8] | TGI [9] | TGI [10]
C(=C1c2ccccc2-c2ccccc21)c1ccccn1 | 1.57 µM | 5.97 µM | 12.1 µM | > 100 µM | 3.6 µM | 14.2 µM | 7.69 µM | 49.5 µM | 7.58 µM | 24.1 µM | 26.6 µM | > 100 µM | 6.21 µM | 28.5 µM | 8.85 µM | 53.1 µM | – | –
O=C(CCC(=O)Nc1ccc(Cl)cc1)CC(=O)c1ccc(F)cc1 | – | > 100 µM | – | > 100 µM | – | > 100 µM | – | > 100 µM | – | – | – | > 100 µM | – | – | – | – | > 100 µM | > 100 µM
Brc1ccc([I+]c2ccc(Br)cc2)cc1 | 1.7 µM | 5.85 µM | 1.6 µM | 4.26 µM | 1.29 µM | 2.89 µM | 5.2 µM | 20.2 µM | 2.67 µM | 11.5 µM | 4.47 µM | 21 µM | 2.96 µM | 19.9 µM | 2.02 µM | 12.3 µM | – | –
CCC[C@H](N[C@@H]1CCc2cc(F)cc(F)c2C1)C(=O)Nc1cn(C(C)(C)CNCC(C)(C)C)cn1 | 15.4 µM | 42.5 µM | 24.8 µM | > 100 µM | 24.1 µM | > 88.7 µM | 23.2 µM | > 100 µM | 6.12 µM | 21.1 µM | 22.7 µM | > 96.7 µM | 15.3 µM | 64.4 µM | 11.5 µM | 37.8 µM | – | –
C(=C\c1csnn1)/c1cccnc1 | – | > 100 µM | – | > 100 µM | – | > 100 µM | – | > 100 µM | – | > 100 µM | – | > 100 µM | – | – | – | – | > 100 µM | –
Cn1c(=O)cc2c3c(c(NCCCO)ccc31)C(=O)c1ccccc1-2 | 1.76 µM | > 100 µM | 3.45 µM | > 100 µM | 6.34 µM | > 100 µM | 3.48 µM | > 100 µM | 8.64 µM | > 100 µM | 1.21 µM | > 100 µM | 3.68 µM | > 100 µM | 6.67 µM | > 100 µM | – | –
O=c1ccccc2cccc(O)c12 | – | > 100 µM | – | > 100 µM | – | – | – | > 100 µM | – | > 100 µM | – | > 100 µM | – | – | – | – | > 100 µM | > 100 µM
COc1ccc(C(c2ccc(C(C)C)cc(=O)c2O)c2c(O)cc3oc(-c4ccccc4)cc(=O)c3c2O)cc1 (stereo not drawn) | – | 16.7 µM | – | 70.9 µM | – | – | – | > 100 µM | – | 34.2 µM | – | 45.6 µM | – | – | – | – | > 100 µM | 22 µM
COCCOC(=O)C1=C(C)NC2=C(C(=O)CC(c3ccccc3OC)C2)C1c1cccc(O)c1 (stereo not drawn) | 11.5 µM | 35.2 µM | 21.7 µM | > 100 µM | 11.5 µM | 30 µM | 13.1 µM | > 72.2 µM | 14.1 µM | 36.4 µM | 19.1 µM | 71.2 µM | 2.04 µM | > 26.2 µM | 11.7 µM | 37.5 µM | – | –
CN1C(=O)CNC(=O)[C@H](NC(=O)c2nc3ccccc3cc2O)CSSC[C@H]1C(=O)NCCc1nc2ccccc2cc1O | 14.3 µM | > 100 µM | 22.4 µM | > 63.4 µM | 0.96 µM | 47.7 µM | 32.5 µM | > 100 µM | 13.9 µM | 36 µM | 15.3 µM | 38.7 µM | 21.5 µM | 67 µM | 14.3 µM | 51.7 µM | – | –
CC(=O)OC1COC(S[As](C)C)C(OC(C)=O)C1OC(C)=O (stereo not drawn) | 2.19 µM | 8.31 µM | 0.48 µM | 2.74 µM | 1.15 µM | 9.24 µM | 3.51 µM | > 32.4 µM | 0.338 µM | 2.9 µM | 0.195 µM | 1.52 µM | 0.344 µM | 0.916 µM | 0.755 µM | 6.22 µM | – | –
O=C1CCCC/C1=C/C=C/c1ccccc1 | – | > 100 µM | – | > 100 µM | – | > 100 µM | – | > 100 µM | – | > 100 µM | – | > 100 µM | – | – | – | – | > 100 µM | –
CCN(CC)CCOc1ccc(/C=C2\CC3C4CCC5=CC(=O)CC[C@]5(C)C4CC[C@]3(C)C2=O)cc1OC (stereo partly drawn) | 2.01 µM | 4.06 µM | 2.6 µM | 7.06 µM | 1.93 µM | 3.85 µM | 4.54 µM | 58.3 µM | 1.85 µM | 4.56 µM | 3.05 µM | – | 2.45 µM | 17.3 µM | 5.02 µM | 19.7 µM | – | –
O=c1cc(Cl)nc[nH]1 | – | > 100 µM | – | > 100 µM | – | > 100 µM | – | > 100 µM | – | – | – | > 100 µM | – | – | – | – | > 100 µM | > 100 µM
O=C1c2ccccc2C(=O)N1c1ccc(S(=O)(=O)Nc2ncccn2)cc1 | > 100 µM | > 100 µM | > 100 µM | > 100 µM | > 100 µM | > 100 µM | > 100 µM | > 100 µM | > 100 µM | > 100 µM | > 100 µM | > 100 µM | > 100 µM | > 100 µM | > 100 µM | > 100 µM | – | –
COc1ccc2[nH]cc(-c3nc(-c4cn(C)c5ccncc45)cs3)c2c1 | 12.3 µM | 25.7 µM | 1.64 µM | 3.08 µM | 1.87 µM | 3.52 µM | 1.79 µM | 3.43 µM | 1.83 µM | 3.34 µM | 1.82 µM | 3.21 µM | 14.7 µM | 41.6 µM | 1.79 µM | 3.4 µM | – | –
CCc1c2c(nc3cc4c(cc13)OCO4)-c1cc3c(c(=O)n1C2)COC(=O)[C@@]3(CC)OC(=O)CN | < 0.01 µM | < 0.0166 µM | < 0.01 µM | 0.034 µM | < 0.0143 µM | 0.309 µM | < 0.01 µM | 0.149 µM | < 0.01 µM | < 0.0324 µM | < 0.01 µM | < 0.01 µM | 0.13 µM | – | < 0.01 µM | < 0.0366 µM | – | –
CC1(O)CC2C(CC1SCCO)C2(C)C (stereo not drawn) | – | > 100 µM | – | > 100 µM | – | > 100 µM | – | > 100 µM | – | – | – | > 100 µM | – | – | – | – | > 100 µM | > 100 µM
